Measurements reported in ChEMBL document CHEMBL1777745, “Non-oxime pyrazole based inhibitors of B-Raf kinase” (Bioorg Med Chem Lett, 2011).

Key:
[1] = target: T1, Serine/threonine-protein kinase B-raf (Homo sapiens, UniProt P15056); experiment: Inhibition of B-Raf
[2] = tested on: Caco-2; experiment: Efflux ratio of apparent permeability from […] in human Caco2 cells; format: ADME, cell-based
[3] = target: T1, Serine/threonine-protein kinase B-raf; experiment: Inhibition of B-Raf-mediated ERK phosphorylation in cell-based assay
[4] = Apparent permeability from apical to basolateral side in human Caco2 cells; format: ADME, cell-based; conditions: caco-2
[5] = Volume of distribution at steady state in CD-1 mouse at 2.5 mg/kg, iv; format: ADME, organism-based; parameters: dose 2.5 mg/kg, route intravenous; conditions: in vivo, read-out: Vdss
[6] = AUC in CD-1 mouse at 25 mg/kg, po; format: ADME, organism-based; parameters: dose 25 mg/kg, route oral; conditions: plasma
[7] = AUC in CD-1 mouse at 50 mg/kg, po; format: ADME, organism-based; parameters: dose 50 mg/kg, route oral; conditions: plasma
[8] = AUC in CD-1 mouse at 2.5 mg/kg, iv; format: ADME, organism-based; parameters: dose 2.5 mg/kg, route intravenous; conditions: plasma
[9] = Clearance in CD-1 mouse at 2.5 mg/kg, iv; format: ADME, organism-based; parameters: dose 2.5 mg/kg, route intravenous; conditions: in vivo
[10] = AUC in CD-1 mouse at 100 mg/kg, po; format: ADME, organism-based; parameters: dose 100 mg/kg, route oral; conditions: plasma

T1 sequence (P15056 whole entry): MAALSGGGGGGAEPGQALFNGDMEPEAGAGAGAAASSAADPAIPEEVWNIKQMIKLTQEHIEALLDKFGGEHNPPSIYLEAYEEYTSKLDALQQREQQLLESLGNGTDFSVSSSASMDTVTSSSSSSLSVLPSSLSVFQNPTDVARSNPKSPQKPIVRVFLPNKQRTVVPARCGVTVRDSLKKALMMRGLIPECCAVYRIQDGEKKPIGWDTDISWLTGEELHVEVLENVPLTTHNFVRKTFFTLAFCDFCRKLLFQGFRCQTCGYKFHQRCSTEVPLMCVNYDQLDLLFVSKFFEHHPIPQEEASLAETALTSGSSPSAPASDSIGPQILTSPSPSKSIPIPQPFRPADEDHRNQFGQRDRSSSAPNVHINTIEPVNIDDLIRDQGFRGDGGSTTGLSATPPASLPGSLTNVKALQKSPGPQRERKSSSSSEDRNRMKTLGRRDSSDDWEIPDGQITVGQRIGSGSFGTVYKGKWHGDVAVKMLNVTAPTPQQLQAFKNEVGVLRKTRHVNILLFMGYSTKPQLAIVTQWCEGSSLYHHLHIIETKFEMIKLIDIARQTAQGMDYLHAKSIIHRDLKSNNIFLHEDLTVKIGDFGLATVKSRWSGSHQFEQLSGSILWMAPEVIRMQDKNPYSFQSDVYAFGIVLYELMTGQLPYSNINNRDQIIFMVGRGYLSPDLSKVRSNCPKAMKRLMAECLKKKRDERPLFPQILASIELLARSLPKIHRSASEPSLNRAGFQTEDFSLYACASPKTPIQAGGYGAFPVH

Compound	IC50 [1] [nM]	IC50 [3] [nM]	also measured
CCc1c[nH]nc1-c1ccc(-c2cn(C)nc2-c2ccncc2)cc1	> 1000	–	–
Cn1cc(-c2ccc3c(c2)CCc2c[nH]nc2-3)c(-c2ccncc2)n1	23	–	–
Cn1cc(-c2ccc3c(c2)CCc2n[nH]cc2-3)c(-c2ccncc2)n1	> 1000	–	–
Cn1cc(-c2ccc3c(c2)Cc2n[nH]nc2-3)c(-c2ccncc2)n1	11	–	–
Cn1cc(-c2ccc(-c3c[nH]nn3)cc2)c(-c2ccncc2)n1	55	–	–
Cn1cc(-c2ccc(-c3cc[nH]c3)cc2)c(-c2ccncc2)n1	788	–	–
Cn1cc(-c2ccc3c(c2)CNC3=O)c(-c2ccncc2)n1	94	–	–
CNC(=O)c1ccc(-c2cn(C)nc2-c2ccncc2)cc1	647	–	–
Cn1cc(-c2ccc(S(N)(=O)=O)cc2)c(-c2ccncc2)n1	> 1000	–	–
Cn1cc(-c2cccc3[nH]ncc23)c(-c2ccncc2)n1	468	–	–
Cn1cc(-c2ccc3[nH]ncc3c2)c(-c2ccncc2)n1	> 1000	–	–
Cn1cc(-c2ccc3[nH]ccc3c2)c(-c2ccncc2)n1	861	–	–
Cn1cc(-c2ccc3cc[nH]c3c2)c(-c2ccncc2)n1	328	–	–
Cn1cc(-c2ccc3c(O)cccc3c2)c(-c2ccncc2)n1	1.4	–	–
Cn1cc(-c2ccc3cc(O)ccc3c2)c(-c2ccncc2)n1	77	–	–
Cn1cc(N)c(-c2ccncc2)n1	> 1000	–	–
Cn1cc(O)c(-c2ccncc2)n1	> 1000	–	–
c1cc(-c2nn(C3CCNCC3)cc2-c2ccc3c(c2)Cc2c[nH]nc2-3)ccn1	–	230	Ratio [2]: 6.17; Papp A→B [4]: 1.88 ×10⁻⁶ cm/s

Compound	IC50 [1] [nM]	IC50 [3] [nM]	also measured
CN1CCC(n2cc(-c3ccc4c(c3)Cc3c[nH]nc3-4)c(-c3ccncc3)n2)CC1	8	886	–
c1cc(-c2nn(C3CC4CCC(C3)N4)cc2-c2ccc3c(c2)Cc2c[nH]nc2-3)ccn1 (configuration not stated)	0.57	262	–
c1cc(-c2nn(C3CCCNC3)cc2-c2ccc3c(c2)Cc2c[nH]nc2-3)ccn1 (configuration not stated)	3.7	1670	–
c1cc(-c2nn(C3CCCNCC3)cc2-c2ccc3c(c2)Cc2c[nH]nc2-3)ccn1 (configuration not stated)	3.2	1540	–
N[C@H]1CC[C@H](n2cc(-c3ccc4c(c3)Cc3c[nH]nc3-4)c(-c3ccncc3)n2)CC1	0.66	396	–
N[C@H]1CC[C@@H](n2cc(-c3ccc4c(c3)Cc3c[nH]nc3-4)c(-c3ccncc3)n2)CC1	22.9	1520	–
CNCCn1cc(-c2ccc3c(c2)Cc2c[nH]nc2-3)c(-c2ccncc2)n1	72.5	8160	–
O[C@@H]1CCC[C@H](n2cc(-c3ccc4c(c3)Cc3c[nH]nc3-4)c(-c3ccncc3)n2)C1	2	607	–
c1ccc(-n2cc(-c3ccc4c(c3)Cc3c[nH]nc3-4)c(-c3ccncc3)n2)cc1	4.6	4370	–
O[C@@H]1CNCC[C@H]1n1cc(-c2ccc3c(c2)Cc2c[nH]nc2-3)c(-c2ccncc2)n1	4.9	4870	–
c1cc(-c2nn(C3CC4COCC(C3)N4)cc2-c2ccc3c(c2)Cc2c[nH]nc2-3)ccn1 (configuration not stated)	5	619	–
F[C@H]1CNCC[C@H]1n1cc(-c2ccc3c(c2)Cc2c[nH]nc2-3)c(-c2ccncc2)n1	3.8	407	–
F[C@H]1CCNC[C@H]1n1cc(-c2ccc3c(c2)Cc2c[nH]nc2-3)c(-c2ccncc2)n1	3.2	2120	–
F[C@H]1CNCC[C@@H]1n1cc(-c2ccc3c(c2)Cc2c[nH]nc2-3)c(-c2ccncc2)n1	1.25	672	–
Cc1c[nH]nc1-c1ccc(-c2cn(C)nc2-c2ccncc2)cc1	7	–	–
Cn1cc(-c2ccc3cn[nH]c3c2)c(-c2ccncc2)n1	139	–	–
F[C@@H]1CNCC[C@H]1n1cc(-c2ccc3c(c2)Cc2c[nH]nc2-3)c(-c2ccncc2)n1 (stereo in doubt; 38)	1.4	700	Ratio [2]: 1.55; Vd [5]: 8.74 L/kg; AUC [6]: 5160 ng·h/mL; Papp A→B [4]: 11.4 ×10⁻⁶ cm/s; AUC [7]: 13400 ng·h/mL; AUC [8]: 406 ng·h/mL; clearance [9]: 91.1 mL/min/kg; AUC [10]: 38800 ng·h/mL
F[C@@H]1CNCC[C@H]1n1cc(-c2ccc3c(c2)Cc2c[nH]nc2-3)c(-c2ccncc2)n1 (stereo in doubt; 41)	1.6	532	–
